Reference: patent US10766884B2 (Pfizer Inc., priority 2018, dated 2020)

Key:
CDK4/Cyclin D1 = CDK4/Cyclin D1 (Homo sapiens (Human), UniProt P11802); experiment: CDK4/Cyclin D1 mobility shift assay; format: biochemical; settings: activated CDK4/Cyclin D1, 3.5 mM ATP, Morrison fit; read-out: CDK4D1 Ki
Method: (§1) The purpose CDK4/Cyclin D1 assay is to evaluate the inhibition (% inhibition, Kiapp and Ki values) in the presence of small molecule inhibitors by using a fluorescence based microfluidic mobility shift assay. […] The mobility shift assay electrophoretically separates the fluorescently labeled peptides (substrate and phosphorylated product) following the kinase reaction. Both substrate and product are measured and the ratio of these values is used to generate % Conversion of substrate to product by the LabChip EZ Reader.
The reaction was stopped after 195 minutes by the addition of 50 μL of 30 mM EDTA. Ki determinations were made from a plot of the fractional velocity as a function of inhibitor concentration fit to the Morrison equation with the enzyme concentration as a variable.
(§2) For CDK4 and CDK6 mobility shift assays, see also Morrison, J. F. (1969) Kinetics of the reversible inhibition of enzyme-catalysed reactions by tight-binding inhibitors, Biochimica et biophysica acta 185, 269-286; and Murphy, D. J. (2004) Determination of accurate KI values for tight-binding enzyme inhibitors: an in silico study of experimental error and assay design, Analytical biochemistry 327, 61-67.

CDK6/Cyclin D3 = CDK6/Cyclin D3 (Homo sapiens (Human), UniProt Q00534); experiment: CDK6/Cyclin D3 mobility shift assay; format: biochemical; settings: activated CDK6/Cyclin D3, 3.5 mM ATP, Morrison fit; read-out: CDK6_D3 Ki
Method: as §1, with “of the CDK6/Cyclin D3” for “CDK4/Cyclin D1”, “conversion” for “Conversion”
The reaction was stopped after 95 minutes by the addition of 50 μL of 30 mM EDTA. Ki determinations were made from a plot of the fractional velocity as a function of inhibitor concentration fit to the Morrison equation with the enzyme concentration as a variable.
as §2

CDK4 = CDK4 (Homo sapiens (Human), UniProt P11802); experiment: Phospho-Serine 795 Rb ELISA assay in JEKO-1 cells; format: cell-based; settings: overnight treatment, phospho-Rb S795, read-out: CDK4 pRB S795 ELISA JEKO-1 cells IC50
Method: (§3) JEKO-1 or MV4-11 cells were seeded at 15,000 or 20,000 cells per well, respectively, in 100 μL growth media and allowed to incubate at 37° C. with 5% CO2 overnight. The following day, compounds were serially diluted from a 10 mM top dose for an 11-point 3-fold dilution curve in DMSO. Compounds were intermediately diluted 1:200 into growth media prior to diluting 1:5 on cells for final concentration 10 μM to 0.1 nM in 0.1% DMSO on cells. JEKO-1 and MV4-11 cells were treated were treated overnight, at 37° C. with 5% CO2. Cells were lysed in 100 μL/well CST lysis buffer on ice and transferred to pre-coated and blocked anti-phospho-Ser795 Rb ELISA plates for overnight incubation at 4° C. Plates were washed to remove residual, unbound cellular proteins and total Rb detection antibody added for 90 minutes at 37° C. Following wash to remove unbound total Rb antibody, the HRP tagged antibody was allowed to bind for 30 minutes at 37° C. Following wash to remove unbound HRP antibody, Glo Substrate Reagent was added and incubated protected from light for 5 to 10 minutes. Plates were read in luminescence mode and IC50 values calculated.

CDK6 = CDK6 (Homo sapiens (Human), UniProt Q00534); experiment: Phospho-Serine 795 Rb ELISA assay in MV4-11 cells; format: cell-based; settings: overnight treatment, phospho-Rb S795, read-out: CDK6 pRB S795 ELISA MV4-11 cells IC50
Method: as §3

CDK4/Cyclin D1, sequence (P11802 whole entry): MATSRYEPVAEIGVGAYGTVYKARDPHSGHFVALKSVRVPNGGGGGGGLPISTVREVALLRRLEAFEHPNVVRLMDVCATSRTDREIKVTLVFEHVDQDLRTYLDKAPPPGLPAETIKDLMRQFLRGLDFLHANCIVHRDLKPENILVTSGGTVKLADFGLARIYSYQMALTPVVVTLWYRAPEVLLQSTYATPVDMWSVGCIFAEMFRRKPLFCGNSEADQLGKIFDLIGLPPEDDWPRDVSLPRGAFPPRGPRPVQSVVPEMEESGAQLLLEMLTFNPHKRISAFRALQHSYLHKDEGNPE
CDK4/Cyclin D1, sequence (P24385 whole entry partner): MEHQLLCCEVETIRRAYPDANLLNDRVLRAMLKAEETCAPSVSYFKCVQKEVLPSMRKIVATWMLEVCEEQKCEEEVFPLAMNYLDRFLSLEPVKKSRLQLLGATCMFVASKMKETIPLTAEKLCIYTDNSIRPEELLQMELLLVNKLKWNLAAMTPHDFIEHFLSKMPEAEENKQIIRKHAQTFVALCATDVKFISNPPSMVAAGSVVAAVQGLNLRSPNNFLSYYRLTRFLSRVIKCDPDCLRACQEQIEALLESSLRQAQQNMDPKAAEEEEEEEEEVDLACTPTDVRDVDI
CDK6/Cyclin D3, sequence (Q00534 whole entry): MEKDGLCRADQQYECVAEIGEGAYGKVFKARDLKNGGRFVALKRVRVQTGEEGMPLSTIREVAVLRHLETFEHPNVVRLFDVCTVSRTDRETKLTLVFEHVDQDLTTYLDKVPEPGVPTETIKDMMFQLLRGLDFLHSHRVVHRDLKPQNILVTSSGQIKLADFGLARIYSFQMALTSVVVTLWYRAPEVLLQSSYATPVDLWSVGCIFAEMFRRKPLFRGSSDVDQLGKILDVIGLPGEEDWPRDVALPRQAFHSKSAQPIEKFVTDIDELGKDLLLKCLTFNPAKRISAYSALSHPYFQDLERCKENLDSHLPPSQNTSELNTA
CDK6/Cyclin D3, sequence (P30281 whole entry partner): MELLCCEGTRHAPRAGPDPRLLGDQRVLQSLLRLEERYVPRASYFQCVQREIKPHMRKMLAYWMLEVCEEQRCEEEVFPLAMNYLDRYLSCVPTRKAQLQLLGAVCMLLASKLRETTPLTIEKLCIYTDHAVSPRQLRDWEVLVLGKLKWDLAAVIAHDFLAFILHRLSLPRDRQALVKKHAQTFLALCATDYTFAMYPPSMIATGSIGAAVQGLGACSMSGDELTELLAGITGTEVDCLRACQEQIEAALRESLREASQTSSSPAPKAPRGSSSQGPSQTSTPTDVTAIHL
CDK6, sequence (Q00534 whole entry): as the sequence (Q00534 whole entry) above
CDK6, sequence (P30281 whole entry partner): as the sequence (P30281 whole entry partner) above
CDK4, sequence (P11802 2-303): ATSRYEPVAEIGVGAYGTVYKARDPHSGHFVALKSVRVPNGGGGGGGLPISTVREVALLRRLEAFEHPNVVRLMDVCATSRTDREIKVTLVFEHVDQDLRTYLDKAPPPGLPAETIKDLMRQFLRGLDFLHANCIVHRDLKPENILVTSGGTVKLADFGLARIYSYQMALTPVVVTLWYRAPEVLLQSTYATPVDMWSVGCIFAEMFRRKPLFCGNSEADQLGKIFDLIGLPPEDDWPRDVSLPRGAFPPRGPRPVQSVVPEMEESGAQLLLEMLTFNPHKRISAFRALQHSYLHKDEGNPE
CDK4, sequence (P24385 whole entry partner): as the sequence (P24385 whole entry partner) above

## CC(C)n1c(C(C)(O)C2CC2)nc2c(F)cc(-c3nc(N[C@@H]4CCOC[C@H]4O)ncc3Cl)cc21 (single isomer, unassigned) [Example A23]
CDK4/Cyclin D1
  Ki: 0.5 nM
CDK6/Cyclin D3
  Ki: 11.6 nM
CDK4
  IC50: 26.5 nM
CDK6
  IC50: 84.1 nM

## CC(C)n1c(C(C)(O)C2CC2)nc2c(F)cc(-c3nc(N[C@@H]4CCOC[C@H]4O)ncc3Cl)cc21 (single isomer, unassigned) [Example A24]
CDK4/Cyclin D1
  Ki: 1.3 nM
CDK6/Cyclin D3
  Ki: 16.4 nM
CDK4
  IC50: 40.1 nM
CDK6
  IC50: 167 nM

## CC(C)n1c(C2CCO2)nc2c(F)cc(-c3nc(N[C@@H]4CCN(S(C)(=O)=O)C[C@H]4O)ncc3Cl)cc21 (single isomer, unassigned) [Example A31]
CDK4/Cyclin D1
  Ki: 0.5 nM
CDK6/Cyclin D3
  Ki: 7.1 nM
CDK4
  IC50: 23.5 nM
CDK6
  IC50: 87 nM

## CC(O)c1nc2c(F)cc(-c3nc(N[C@@H]4CCOC[C@H]4O)ncc3Cl)cc2n1C(C)C(F)F (single isomer, unassigned) [Example A36]
CDK4/Cyclin D1
  Ki: 0.2 nM
CDK6/Cyclin D3
  Ki: 3.7 nM
CDK4
  IC50: 19.6 nM
CDK6
  IC50: 43.9 nM

## CC(N)c1nc2c(F)cc(-c3nc(N[C@@H]4CCN(S(C)(=O)=O)C[C@H]4O)ncc3Cl)cc2n1C(C)C (single isomer, unassigned) [Example A47]
CDK4/Cyclin D1
  Ki: 1 nM
CDK6/Cyclin D3
  Ki: 24.6 nM
CDK4
  IC50: 383 nM
CDK6
  IC50: 370 nM

## CC(N)c1nc2c(F)cc(-c3nc(N[C@@H]4CCN(S(C)(=O)=O)C[C@H]4O)ncc3Cl)cc2n1C(C)C (single isomer, unassigned) [Example A48]
CDK4/Cyclin D1
  Ki: 0.1 nM
CDK6/Cyclin D3
  Ki: 2.3 nM
CDK4
  IC50: 36.5 nM
CDK6
  IC50: 58.9 nM

## CC1CNCc2nc3c(F)cc(-c4nc(N[C@@H]5CCOC[C@H]5O)ncc4Cl)cc3n21 (single isomer, unassigned) [Example A55, 1,5-anhydro-3-{[5-chloro-4-(9-fluoro-4-methyl-1,2,3,4-tetrahydropyrazino[1,2-a]benzimidazol-7-yl)pyrimidin-2-yl]amino}-2,3-dideoxy-D-threo-pentitol]
CDK4/Cyclin D1
  Ki: 3.2 nM
CDK6/Cyclin D3
  Ki: 64.9 nM
CDK4
  IC50: 198 nM
CDK6
  IC50: 283 nM

## CC(C)n1c(CC(N)C(F)F)nc2c(F)cc(-c3nc(N[C@@H]4CCOC[C@H]4O)ncc3Cl)cc21 (single isomer, unassigned) [Example A57, 3-({4-[2-(2-amino-3,3-difluoropropyl)-4-fluoro-1-(propan-2-yl)-1H-benzimidazol-6-yl]-5-chloropyrimidin-2-yl}amino)-1,5-anhydro-2,3-dideoxy-D-threo-pentitol]
CDK4/Cyclin D1
  Ki: 0.4 nM
CDK6/Cyclin D3
  Ki: 19.1 nM
CDK4
  IC50: 49 nM
CDK6
  IC50: 269 nM

## CC(C)n1c(CC(N)C(F)F)nc2c(F)cc(-c3nc(N[C@@H]4CCOC[C@H]4O)ncc3Cl)cc21 (single isomer, unassigned) [Example A58, 3-({4-[2-(2-amino-3,3-difluoropropyl)-4-fluoro-1-(propan-2-yl)-1H-benzimidazol-6-yl]-5-chloropyrimidin-2-yl}amino)-1,5-anhydro-2,3-dideoxy-D-threo-pentitol]
CDK4/Cyclin D1
  Ki: 0.6 nM
CDK6/Cyclin D3
  Ki: 17.6 nM
CDK4
  IC50: 33.1 nM
CDK6
  IC50: 203 nM

## COCC(C)n1c(C)nc2c(F)cc(-c3nc(N[C@@H]4CCN(S(C)(=O)=O)C[C@H]4O)ncc3Cl)cc21 (single isomer, unassigned) [Example A73]
CDK4/Cyclin D1
  Ki: 0.9 nM
CDK6/Cyclin D3
  Ki: 16.1 nM
CDK4
  IC50: 72 nM
CDK6
  IC50: 188 nM

## COCC(C)n1c(C)nc2c(F)cc(-c3nc(N[C@@H]4CCN(S(C)(=O)=O)C[C@H]4O)ncc3Cl)cc21 (single isomer, unassigned) [Example A74]
CDK4/Cyclin D1
  Ki: 0.2 nM
CDK6/Cyclin D3
  Ki: 6.2 nM
CDK4
  IC50: 26.5 nM
CDK6
  IC50: 89.7 nM

## CC(C)n1c([C@@H](C)O)nc2c(F)cc(-c3nc(N[C@@H]4CCN(S(C)(=O)=O)C[C@@H]4O)ncc3Cl)cc21 (single isomer, unassigned) [Example F11]
CDK4/Cyclin D1
  Ki: 5.4 nM
CDK4
  IC50: 821 nM

## Cc1nc2c(F)cc(-c3nc(N[C@@H]4CCN(S(C)(=O)=O)C[C@H]4O)ncc3Cl)cc2n1C(C)C [Example A01, (3R,4R)-4-({5-chloro-4-[4-fluoro-2-methyl-1-(propan-2-yl)-1H-benzimidazol-6-yl]pyrimidin-2-yl}amino)-1-(methanesulfonyl)piperidin-3-ol]
CDK4/Cyclin D1
  Ki: 0.1 nM
CDK6/Cyclin D3
  Ki: 2.3 nM
CDK4
  IC50: 25.3 nM
CDK6
  IC50: 76.5 nM

## Cc1nc2c(F)cc(-c3nc(N[C@@H]4CCN(S(C)(=O)=O)C[C@H]4O)ncc3F)cc2n1C(C)C [Example A02]
CDK4/Cyclin D1
  Ki: 0.1 nM
CDK6/Cyclin D3
  Ki: 2.5 nM
CDK4
  IC50: 88.6 nM
CDK6
  IC50: 163 nM

## Cc1nc2ccc(-c3nc(N[C@@H]4CCN(S(C)(=O)=O)C[C@H]4O)ncc3F)cc2n1C(C)C [Example A76, (3R,4R)-4-({5-fluoro-4-[2-methyl-1-(propan-2-yl)-1H-benzimidazol-6-yl]pyrimidin-2-yl}amino)-1-(methanesulfonyl)piperidin-3-ol]
CDK6/Cyclin D3
  Ki: 6.3 nM
CDK6
  IC50: 242 nM

## CC(C)n1c([C@@H](C)O)nc2c(F)cc(-c3nc(N[C@@H]4CCN(S(C)(=O)=O)C[C@H]4O)ncc3Cl)cc21 [Example A93, (3R,4R)-4-[(5-chloro-4-{4-fluoro-2-[(1R)-1-hydroxyethyl]-1-(propan-2-yl)-1H-benzimidazol-6-yl}pyrimidin-2-yl)amino]-1-(methanesulfonyl)piperidin-3-ol]
CDK4/Cyclin D1
  Ki: 0.2 nM
CDK4
  IC50: 34.7 nM

## CC(O)c1nc2c(F)cc(-c3nc(N[C@@H]4CCN(S(=O)(=O)C(F)F)C[C@H]4O)ncc3Cl)cc2n1C(C)C (stereo partly drawn) [Example F10, (3R,4R)-4-({5-chloro-4-[4-flluoro-2-(1-hydroxyethyl)-1-(propan-2-yl)-1H-benzimidazol-6-yl]pyrimidin-2-yl}amino)-1-(difluoromethanesulfonyl)piperidin-3-ol]
CDK4/Cyclin D1
  Ki: 0.5 nM
CDK4
  IC50: 41.3 nM

## CC(C)(C)n1cnc2c(F)cc(-c3nc(N[C@@H]4CCN(S(C)(=O)=O)C[C@H]4O)ncc3F)cc21 [Example F15, (3R,4R)-4-{[4-(1-tert-butyl-4-fluoro-1H-benzimidazol-6-yl)-5-fluoropyrimidin-2-yl]amino}-1-(methanesulfonyl)piperidin-3-ol]
CDK6/Cyclin D3
  Ki: 1 nM
CDK4
  IC50: 34.4 nM
CDK6
  IC50: 39.8 nM

## CC(C)n1cnc2c(F)cc(-c3nc(N[C@@H]4CCN(C(=O)C5COC5)C[C@H]4O)ncc3Cl)cc21 [Example F18, [(3R,4R)-4-({5-chloro-4-[4-fluoro-1-(propan-2-yl)-1H-benzimidazol-6-yl]pyrimidin-2-yl}amino)-3-hydroxypiperidin-1-yl](oxetan-3-yl)methanone]
CDK4/Cyclin D1
  Ki: 0.9 nM
CDK6/Cyclin D3
  Ki: 10.1 nM
CDK4
  IC50: 31.7 nM

## CNCC(=O)N1CC[C@@H](Nc2ncc(Cl)c(-c3cc(F)c4ncn(C(C)C)c4c3)n2)[C@H](O)C1 [Example F24, 1-[(3R,4R)-4-({5-chloro-4-[4-fluoro-1-(propan-2-yl)-1H-benzimidazol-6-yl]pyrimidin-2-yl}amino)-3-hydroxypiperidin-1-yl]-2-(methylamino)ethan-1-one]
CDK4/Cyclin D1
  Ki: 2.1 nM
CDK6/Cyclin D3
  Ki: 19.9 nM

## CC(C)n1cnc2c(F)cc(-c3nc(N[C@@H]4CCN(C(=O)C[C@H](N)C(F)(F)F)C[C@H]4O)ncc3Cl)cc21 [Example F31, (3S)-3-amino-1-[(3R,4R)-4-({5-chloro-4-[4-fluoro-1-(propan-2-yl)-1H-benzimidazol-6-yl]pyrimidin-2-yl}amino)-3-hydroxypiperidin-1-yl]-4,4,4-trifluorobutan-1-one]
CDK4/Cyclin D1
  Ki: 2.4 nM
CDK6/Cyclin D3
  Ki: 23 nM

## CC(=O)c1nc2c(F)cc(-c3nc(N[C@@H]4CCN(S(C)(=O)=O)C[C@H]4O)ncc3Cl)cc2n1C(C)C [Example G01, 1-[6-(5-chloro-2-{[(3R,4R)-3-hydroxy-1-(methanesulfonyl)piperidin-4-yl]amino}pyrimidin-4-yl)-4-fluoro-1-(propan-2-yl)-1H-benzimidazol-2-yl]ethan-1-one]
CDK4/Cyclin D1
  Ki: 0.4 nM
CDK6/Cyclin D3
  Ki: 5.9 nM
